Data from patent publication US20080206149A1, “METHOD, DYE AND MEDICAMENT FOR STAINING THE INTERNAL LIMITING MEMBRANE, EPIRETINAL MEMBRANE, THE VITREOUS AND/OR THE CAPSULE OF AN EYE” (LUDWIG-MAXIMILIANS-UNIVERSITAT MUNCHEN, priority 2005, published 2008).
“Also recorded” adds a separate entry of the source.

Key:
[1] = tested on: ARPE-19 cells; assay: Life-dead assay (propidium iodide / Hoechst 33342), ARPE-19 cells; format: cell-based; settings: ARPE-19 cells, 0.2% and 0.02% dye, 24 hours after treatment, compared to BSS plus
Description: (§1) Confluent RPE and ARPE-19 cells were prepared and treated as described above. Cell viability was quantified based on a two-color fluorescence assay in which the nuclei of nonviable cells appear red because of staining by the membrane-impermeable dye propidium iodide (Sigma), whereas the nuclei of all cells were stained with the membrane-permeable dye Hoechst 33342 (Intergen, Purchase, N.Y.). […] For evaluation of cell viability, cells were washed in PBS and incubated with 2.0 μg/mL propidium iodide and 1.0 μg/mL Hoechst 33342 for 20 minutes at 37° C. Subsequently, cells were analyzed with an epifluorescence microscope (Axioskop; Zeiss, Göttingen, Germany). The labeled nuclei were then counted in fluorescence photomicrographs, and dead cells were expressed as a percentage of total nuclei in the field. The data are based on counts from three experiments performed in duplicate wells, with three to five documented representative fields per well.

[2] = tested on: primary RPE cells; assay: Life-dead assay (propidium iodide / Hoechst 33342), primary RPE cells; format: cell-based; settings: primary RPE cells, 0.2% and 0.02% dye, 24 hours after treatment, compared to BSS plus
Description: Invest Ophthalmol Vis Sci 2002; 43: 3575-82.
as §1

[3] = tested on: vitreous; assay: Staining of the vitreous during pars plana vitrectomy in porcine eyes; format: in vivo; settings: graded by two examiners
Description: All dyes were dissolved and diluted using balanced salt solution (BSS plus; Alcon Laboratories Inc., Fort Worth, Tex).
Experiments were performed in animals (porcine eyes) and humans after approval of the local ethics committee had been obtained. All experiments were performed in compliance with the Declaration of Helsinki.
Ophthalmic surgery consisted of a standard pars plana vitrectomy. First, the transparent vitreous was removed as completely as possible. Then fluid air exchange was performed in order to avoid an uncontrolled distribution of the dye in the vitreous cavity. The dye was then injected into the air filled globe. After a period of one minute, the dye was washed out by irrigation with BSS. This was followed by an injection of the dye in concentrations from 0.2% to 2%. The staining of the vitreous was graded by two examiners who also performed the surgical procedures.

[4] = tested on: epiretinal membranes, ILM and vitreous; assay: Vitreoretinal surgery for macular pucker (Example 4); format: in vivo, human; settings: for staining effect of ERM: washed out after one minute
From the text: The study was approved by the local ethics committee and Institutional Review Board, and written informed consent was obtained from all patients. Thirteen patients with macular pucker, seven males and six females with a mean age of 65, were included in the present study.
Preoperatively and postoperatively, patients underwent a complete clinical examination including measurement of best corrected visual acuity (VA), slit-lamp examination, tonometry, funduscopy using a 78 diopter lens (Volk Optical, Mentor, Ohio, USA), fluorescein angiography, OCT (Stratus), Goldmann perimetry, multifocal ERG and fundus photograph. Patients were seen one day before surgery and then in six-week intervals. Postoperatively, ERG and Goldmann perimetry were performed at the six-week follow-up visit and were not repeated if unremarkable.
Bromphenol blue was dissolved and diluted using BSS plus and sterilised using a 0.22 μm syringe filter and dye concentrations of 0.2% were then injected into the eye.
Vitrectomy consisted of a standard three-port pars plana vitrectomy as described in previous reports (Haritoglou C., Gandorfer A., Gass C. A., et al., “Indocyanine green-assisted peeling of the internal limiting membrane in macular hole surgery affects visual outcome: a clinicopathologic correlation”, Am J. Ophthalmol 2002; 134:836-41; Haritoglou C., Gandorfer A., Gass C. A., et al.: “The effect of indocyanine-green on functional outcome of macular pucker surgery, Am J. Ophthalmol 2003; 135:328-37). Before injection of the dye, a fluid air-exchange was performed to avoid an uncontrolled dye distribution. Then, a few drops of the dye were applied over the macular area. After a period of one minute, the dye was completely washed out by irrigation. The staining characteristics were then evaluated by the surgeon and an additional examiner (CH). This was followed by removal of epiretinal tissue and the ILM using an end-gripping forceps. After the removal of epiretinal tissue, no second dye injection was performed in this series of patients.
All epiretinal tissue removed during surgery was harvested and immediately prepared for ultrastructural analysis. Ultrathin sections were obtained from all specimens, contrasted with uranyl acetate and lead citrate, and analysed using a Zeiss EM 9 electron microscope (Zeiss Jena, Germany).

[5] = tested on: anterior lens capsule; settings: previous experimental studies; cited from earlier work
[6] = 0.2%, listed as Bromphenol blue
[7] = 0.2%, listed as bromphenol blue

With `O=S1(=O)OC(c2cc(Br)c(O)c(Br)c2)(c2cc(Br)c(O)c(Br)c2)c2ccccc21` [Bromophenol blue, Bromophenole blue] the “cell viability, nuclei of nonviable cells labeled with propidium iodide” value [1] was “did not affect cell survival”, the “cell viability, nuclei of nonviable cells labeled with propidium iodide” value [2] was “did not affect cell survival” and the “staining effect of the vitreous” value ([3]; dye concentration 0.2%) was “good”. The “staining effect of the vitreous” value ([3]; dye concentration 2.0%) was “strong”, the “staining of the ILM” value ([4]; 0.2%, patients with ERM) was “did not observe sufficient staining of the ILM” and the “staining effect of ERM” value [4, 6] was “varied depending on the thickness of the ERM”. For the same compound, the “staining effect of ERM” value [4, 7] was “good staining properties”, the “staining of remnant vitreous at the vitreous base” value [4, 6] was “could he seen in all cases; also recorded: strong staining” and the “staining of remnant vitreous at the vitreous base” value [4, 7] was “good staining properties”. For the same compound, the “histology: cellular integrity of epiretinal cells” value ([4]; epiretinal membranes of 8 patients, electron microscopy) was “maintained their cellular integrity”, the “amplitudes in postoperative ERG examinations” value ([4]; in vivo) was “no affection of the amplitudes” and the “dye-related complications in any functional test performed” value ([4]; in vivo) was “No dye-related complications”. The “loss of VA” value ([4]; in vivo) was “No loss of VA”, the “peripheral visual field defects attributable to the dye” value ([4]; in vivo) was “nor did we observe peripheral visual field defects” and the “safety profile intraoperatively and during follow-up” value ([4]; in vivo) was “very good safety profile”. The VA postoperatively ([4]; overall patients) was 0.32, the VA preoperatively ([4]; overall patients) was 0.16 and the “safety for intraocular application” value [5] was “safe for intraocular application”. The “staining of the anterior lens capsule” value [5] was “strongly stain”.
